Numbers after ± are expanded uncertainties.
How the values were obtained:
[1] = mn = molality of the nth substance listed, in mol/kg; settings: 323.15 K, 101 kPa, Liquid, Vibrating tube method
[2] = osmotic coefficient (dimensionless); mn = molality of the nth substance listed, in mol/kg; settings: 323.15 K, 101 kPa, Liquid, A Knauer K-7000 vapor pressure osmometer
[3] = 323.15 K, 101.33 kPa, Liquid; for speed of sound: Sing-around technique in a fixed-path interferometer; for mass density: Vibrating tube method

Structure (SMILES): CCCCCCn1cc[n+](C)c1.O=S(=O)([O-])C(F)(F)F [1-hexyl-3-methylimidazolium trifluoromethanesulfonate] + CC(C)O
- mass density ([1]; m1 = 0.051): 763.8 ± 0.23 kg/m3
- mass density ([1]; m1 = 0.102): 768.55 ± 0.23 kg/m3
- mass density ([1]; m1 = 0.152): 773.15 ± 0.22 kg/m3
- mass density ([1]; m1 = 0.204): 777.8 ± 0.22 kg/m3
- mass density ([1]; m1 = 0.252): 782.08 ± 0.21 kg/m3
- mass density ([1]; m1 = 0.301): 786.21 ± 0.21 kg/m3
- mass density ([1]; m1 = 0.355): 790.72 ± 0.21 kg/m3
- mass density ([1]; m1 = 0.404): 794.75 ± 0.2 kg/m3
- mass density ([1]; m1 = 0.455): 798.81 ± 0.2 kg/m3
- mass density ([1]; m1 = 0.504): 802.65 ± 0.2 kg/m3
- mass density ([1]; m1 = 0.606): 810.57 ± 0.19 kg/m3
- mass density ([1]; m1 = 0.709): 818.13 ± 0.19 kg/m3
- mass density ([1]; m1 = 0.802): 824.81 ± 0.18 kg/m3
- mass density ([1]; m1 = 0.908): 831.9 ± 0.18 kg/m3
- mass density ([1]; m1 = 1.012): 838.62 ± 0.17 kg/m3
- osmotic coefficient ([2]; m1 = 0.026): 0.991 ± 0.013
- osmotic coefficient ([2]; m1 = 0.043): 0.954 ± 0.012
- osmotic coefficient ([2]; m1 = 0.1): 0.886 ± 0.013
- osmotic coefficient ([2]; m1 = 0.2): 0.758 ± 0.015
- osmotic coefficient ([2]; m1 = 0.305): 0.659 ± 0.017
- osmotic coefficient ([2]; m1 = 0.412): 0.616 ± 0.018
- osmotic coefficient ([2]; m1 = 0.526): 0.585 ± 0.019
- osmotic coefficient ([2]; m1 = 0.819): 0.538 ± 0.02
- osmotic coefficient ([2]; m1 = 1.221): 0.476 ± 0.022
- osmotic coefficient ([2]; m1 = 1.62): 0.444 ± 0.023
- osmotic coefficient ([2]; m1 = 2.033): 0.42 ± 0.024
- osmotic coefficient ([2]; m1 = 2.449): 0.387 ± 0.025
- osmotic coefficient ([2]; m1 = 2.822): 0.378 ± 0.025
- osmotic coefficient ([2]; m1 = 3.344): 0.364 ± 0.025
- osmotic coefficient ([2]; m1 = 3.646): 0.359 ± 0.026

Structure (SMILES): CCCCCCn1cc[n+](C)c1.O=S(=O)([O-])C(F)(F)F [1-hexyl-3-methylimidazolium trifluoromethanesulfonate]
- speed of sound [3]: 1327.2 ± 1.3 m/s
- mass density [3]: 1217.24 ± 0.41 kg/m3

Structure (SMILES): CCCCO [butan-1-ol]
- speed of sound [3]: 1157.3 ± 0.8 m/s
- mass density [3]: 786.32 ± 0.12 kg/m3

Structure (SMILES): CCCCCCn1cc[n+](C)c1.O=S(=O)([O-])C(F)(F)F [1-hexyl-3-methylimidazolium trifluoromethanesulfonate] + CCCCO
- mass density ([1]; m1 = 0.052): 791.18 ± 0.22 kg/m3
- mass density ([1]; m1 = 0.103): 795.76 ± 0.21 kg/m3
- mass density ([1]; m1 = 0.152): 799.99 ± 0.21 kg/m3
- mass density ([1]; m1 = 0.202): 804.23 ± 0.2 kg/m3
- mass density ([1]; m1 = 0.254): 808.45 ± 0.2 kg/m3
- mass density ([1]; m1 = 0.303): 812.46 ± 0.2 kg/m3
- mass density ([1]; m1 = 0.353): 816.43 ± 0.2 kg/m3
- mass density ([1]; m1 = 0.405): 820.46 ± 0.19 kg/m3
- mass density ([1]; m1 = 0.448): 823.73 ± 0.19 kg/m3
- mass density ([1]; m1 = 0.504): 827.88 ± 0.19 kg/m3
- mass density ([1]; m1 = 0.598): 834.75 ± 0.18 kg/m3
- mass density ([1]; m1 = 0.701): 841.92 ± 0.18 kg/m3
- mass density ([1]; m1 = 0.792): 848.08 ± 0.17 kg/m3
- mass density ([1]; m1 = 0.906): 855.49 ± 0.17 kg/m3
- mass density ([1]; m1 = 1.01): 861.88 ± 0.17 kg/m3
- osmotic coefficient ([2]; m1 = 0.028): 0.828 ± 0.018
- osmotic coefficient ([2]; m1 = 0.045): 0.721 ± 0.02
- osmotic coefficient ([2]; m1 = 0.114): 0.599 ± 0.019
- osmotic coefficient ([2]; m1 = 0.198): 0.543 ± 0.02
- osmotic coefficient ([2]; m1 = 0.302): 0.482 ± 0.022
- osmotic coefficient ([2]; m1 = 0.427): 0.453 ± 0.023
- osmotic coefficient ([2]; m1 = 0.526): 0.434 ± 0.023
- osmotic coefficient ([2]; m1 = 0.81): 0.399 ± 0.024
- osmotic coefficient ([2]; m1 = 1.224): 0.356 ± 0.026
- osmotic coefficient ([2]; m1 = 1.64): 0.339 ± 0.026
- osmotic coefficient ([2]; m1 = 2.045): 0.329 ± 0.027
- osmotic coefficient ([2]; m1 = 2.417): 0.313 ± 0.027
- osmotic coefficient ([2]; m1 = 2.827): 0.298 ± 0.028
- osmotic coefficient ([2]; m1 = 3.312): 0.282 ± 0.028

Structure (SMILES): CCCCCCn1cc[n+](C)c1.O=S(=O)([O-])C(F)(F)F [1-hexyl-3-methylimidazolium trifluoromethanesulfonate] + CCCO
- mass density ([1]; m1 = 0.051): 783.95 ± 0.22 kg/m3
- mass density ([1]; m1 = 0.102): 788.64 ± 0.22 kg/m3
- mass density ([1]; m1 = 0.153): 793.14 ± 0.21 kg/m3
- mass density ([1]; m1 = 0.234): 800.17 ± 0.21 kg/m3
- mass density ([1]; m1 = 0.296): 805.3 ± 0.2 kg/m3
- mass density ([1]; m1 = 0.306): 806.08 ± 0.2 kg/m3
- mass density ([1]; m1 = 0.355): 810.02 ± 0.2 kg/m3
- mass density ([1]; m1 = 0.401): 813.72 ± 0.2 kg/m3
- mass density ([1]; m1 = 0.448): 817.38 ± 0.19 kg/m3
- mass density ([1]; m1 = 0.518): 822.69 ± 0.19 kg/m3
- mass density ([1]; m1 = 0.62): 830.19 ± 0.18 kg/m3
- mass density ([1]; m1 = 0.707): 836.34 ± 0.18 kg/m3
- mass density ([1]; m1 = 0.804): 843.03 ± 0.18 kg/m3
- mass density ([1]; m1 = 0.905): 849.7 ± 0.17 kg/m3
- mass density ([1]; m1 = 1.012): 856.34 ± 0.17 kg/m3
- osmotic coefficient ([2]; m1 = 0.025): 0.964 ± 0.014
- osmotic coefficient ([2]; m1 = 0.051): 0.866 ± 0.014
- osmotic coefficient ([2]; m1 = 0.087): 0.796 ± 0.014
- osmotic coefficient ([2]; m1 = 0.214): 0.685 ± 0.016
- osmotic coefficient ([2]; m1 = 0.308): 0.645 ± 0.017
- osmotic coefficient ([2]; m1 = 0.411): 0.585 ± 0.019
- osmotic coefficient ([2]; m1 = 0.518): 0.547 ± 0.02
- osmotic coefficient ([2]; m1 = 0.815): 0.494 ± 0.022
- osmotic coefficient ([2]; m1 = 1.223): 0.462 ± 0.022
- osmotic coefficient ([2]; m1 = 1.614): 0.427 ± 0.024
- osmotic coefficient ([2]; m1 = 2.029): 0.408 ± 0.024
- osmotic coefficient ([2]; m1 = 2.416): 0.392 ± 0.025
- osmotic coefficient ([2]; m1 = 2.82): 0.373 ± 0.025
- osmotic coefficient ([2]; m1 = 3.493): 0.361 ± 0.026

Structure (SMILES): CC(C)O [propan-2-ol]
- speed of sound [3]: 1050.9 ± 0.8 m/s
- mass density [3]: 758.63 ± 0.13 kg/m3

Structure (SMILES): CCC(C)O (stereo unspecified) [butan-2-ol]
- speed of sound [3]: 1120.2 ± 1 m/s
- mass density [3]: 780.4 ± 0.15 kg/m3

Structure (SMILES): CCCCCO [pentan-1-ol]
- speed of sound [3]: 1192.9 ± 1.3 m/s
- mass density [3]: 792.14 ± 0.24 kg/m3

Structure (SMILES): CCCCCCn1cc[n+](C)c1.O=S(=O)([O-])C(F)(F)F [1-hexyl-3-methylimidazolium trifluoromethanesulfonate] + CCC(C)O
- mass density ([1]; m1 = 0.052): 785.45 ± 0.23 kg/m3
- mass density ([1]; m1 = 0.102): 789.95 ± 0.23 kg/m3
- mass density ([1]; m1 = 0.153): 794.44 ± 0.23 kg/m3
- mass density ([1]; m1 = 0.203): 798.75 ± 0.22 kg/m3
- mass density ([1]; m1 = 0.302): 806.95 ± 0.22 kg/m3
- mass density ([1]; m1 = 0.352): 810.99 ± 0.22 kg/m3
- mass density ([1]; m1 = 0.403): 815.07 ± 0.21 kg/m3
- mass density ([1]; m1 = 0.45): 818.65 ± 0.21 kg/m3
- mass density ([1]; m1 = 0.5029): 822.68 ± 0.21 kg/m3
- mass density ([1]; m1 = 0.597): 829.6 ± 0.2 kg/m3
- mass density ([1]; m1 = 0.7): 836.92 ± 0.2 kg/m3
- mass density ([1]; m1 = 0.797): 843.69 ± 0.2 kg/m3
- mass density ([1]; m1 = 0.907): 850.73 ± 0.19 kg/m3
- mass density ([1]; m1 = 1.002): 856.64 ± 0.19 kg/m3
- osmotic coefficient ([2]; m1 = 0.056): 0.823 ± 0.014
- osmotic coefficient ([2]; m1 = 0.079): 0.797 ± 0.014
- osmotic coefficient ([2]; m1 = 0.107): 0.76 ± 0.015
- osmotic coefficient ([2]; m1 = 0.215): 0.626 ± 0.018
- osmotic coefficient ([2]; m1 = 0.296): 0.576 ± 0.019
- osmotic coefficient ([2]; m1 = 0.401): 0.513 ± 0.021
- osmotic coefficient ([2]; m1 = 0.513): 0.487 ± 0.022
- osmotic coefficient ([2]; m1 = 0.809): 0.426 ± 0.024
- osmotic coefficient ([2]; m1 = 1.206): 0.393 ± 0.025
- osmotic coefficient ([2]; m1 = 1.608): 0.38 ± 0.025
- osmotic coefficient ([2]; m1 = 2.032): 0.362 ± 0.026
- osmotic coefficient ([2]; m1 = 2.426): 0.351 ± 0.026
- osmotic coefficient ([2]; m1 = 2.776): 0.342 ± 0.026
- osmotic coefficient ([2]; m1 = 3.311): 0.337 ± 0.026
- osmotic coefficient ([2]; m1 = 3.703): 0.332 ± 0.026

Structure (SMILES): CCCO [propan-1-ol]
- speed of sound [3]: 1121.8 ± 0.8 m/s
- mass density [3]: 779.09 ± 0.13 kg/m3

Structure (SMILES): CCCCCCn1cc[n+](C)c1.O=S(=O)([O-])C(F)(F)F [1-hexyl-3-methylimidazolium trifluoromethanesulfonate] + CCCCCO
- mass density ([1]; m1 = 0.05): 796.7 ± 0.29 kg/m3
- mass density ([1]; m1 = 0.1): 801.05 ± 0.29 kg/m3
- mass density ([1]; m1 = 0.151): 805.37 ± 0.29 kg/m3
- mass density ([1]; m1 = 0.202): 809.6 ± 0.29 kg/m3
- mass density ([1]; m1 = 0.254): 813.84 ± 0.29 kg/m3
- mass density ([1]; m1 = 0.3): 817.52 ± 0.28 kg/m3
- mass density ([1]; m1 = 0.401): 825.41 ± 0.28 kg/m3
- mass density ([1]; m1 = 0.498): 832.62 ± 0.28 kg/m3
- mass density ([1]; m1 = 0.61): 840.59 ± 0.27 kg/m3
- mass density ([1]; m1 = 0.705): 847.05 ± 0.27 kg/m3
- mass density ([1]; m1 = 0.803): 853.55 ± 0.27 kg/m3
- mass density ([1]; m1 = 0.849): 856.48 ± 0.26 kg/m3
- mass density ([1]; m1 = 1): 865.7 ± 0.26 kg/m3
- osmotic coefficient ([2]; m1 = 0.053): 0.784 ± 0.019
- osmotic coefficient ([2]; m1 = 0.084): 0.599 ± 0.021
- osmotic coefficient ([2]; m1 = 0.108): 0.51 ± 0.021
- osmotic coefficient ([2]; m1 = 0.194): 0.44 ± 0.023
- osmotic coefficient ([2]; m1 = 0.313): 0.392 ± 0.025
- osmotic coefficient ([2]; m1 = 0.415): 0.345 ± 0.026
- osmotic coefficient ([2]; m1 = 0.512): 0.331 ± 0.027
- osmotic coefficient ([2]; m1 = 0.829): 0.299 ± 0.028
- osmotic coefficient ([2]; m1 = 1.216): 0.293 ± 0.028
- osmotic coefficient ([2]; m1 = 1.64): 0.276 ± 0.028
- osmotic coefficient ([2]; m1 = 2.047): 0.27 ± 0.028
- osmotic coefficient ([2]; m1 = 2.461): 0.255 ± 0.029
- osmotic coefficient ([2]; m1 = 2.845): 0.244 ± 0.029
- osmotic coefficient ([2]; m1 = 3.322): 0.226 ± 0.03

From the NIST ThermoML archive (doi:10.1016/j.jct.2013.09.041)
